Data published in paper doi:10.1101/2024.07.10.602890, “H105A peptide eye drops promote photoreceptor survival in murine and human models of retinal degeneration” (bioRxiv, 2024).
Ends that are not written are not given here.

System: rd10 and rd10/Serpinf1−/− mice
Experiment: Electroretinography (ERG) a-wave and b-wave after peptide eye drops
Type: in vivo, mouse
Conditions: for ERG a- and b-wave responses relative to vehicle-treated eyes: dark-adapted rd10 and rd10/Serpinf1−/− mice at P21, daily eye drops, n = 8
Description: Fig. 5: Effect of daily eyedrops of PEDF peptides on ERG a-wave and b-wave retinal function (A and B) Representative ERG waveforms for rd10 (A) and rd10/Serpinf1^−/− (B) mice at P21 in response to a light flash (1 cd.s/m^2). Amplitude (y-axis) is plotted against time in milliseconds (ms, x-axis). Treatments are indicated to the right of each plot and are color coded, with control wild type C57Bl/6J mice without peptide treatment shown in blue. A-wave and b-wave are indicated by arrows. (C and D) Photoreceptor a-wave amplitudes. Averages of photoreceptor a-wave amplitudes for rd10 (C) and rd10/Serpinf1^−/− (D) mice as a function of light intensity (cd/s.m^2, x-axis). Responses of animals treated with 17-mer are shown in green, H105A in black, and vehicle (HBSS) in red. Wildtype responses are shown in blue. (E and F) Bipolar cell b-wave amplitudes. Averages of bipolar cell b-wave amplitudes for rd10 (E) and rd10/Serpinf1^−/− (F) mice as a function of light intensity (cd/s.m^2, x-axis), with treatments indicated as in panels (C) and (D). The number of mice evaluated for the data shown in Panels C-F were n = 8 for each rd10, rd10/Serpinf1^−/− and wild type. Each data point represents the average ± SD of each genotype, analyzed by unpaired t-test. Statistical significance between H105A and vehicle is indicated by ##p < 0.01, ###p < 0.001, ####p < 0.0001, and between H105A and 17-mer by **p < 0.01, ***p < 0.001, ****p < 0.0001.
Electroretinogram (ERG) for rd10 and rd10/Serpinf1^−/− mice were recorded in both eyes of each animal using an Espion E2 system with ColorDome (Diagnosys LLC) with a heated surface and mice were dark-adapted overnight as previously described ([29]). Mice were placed on the heated surface and electrodes were placed in the mouth and a subdermal platinum needle electrode was placed in the back of the mouse to serve as ground. Responses were elicited with increasing light impulses with intensity from 0.0001 to 10 cd-seconds per meter squared (cd.s/m^2). Amplitudes for a-wave were measured from stimulus to the trough of the a-wave and b-wave amplitudes were measured from a-wave to b-wave trough or peak. The values from the a and b waves for both eyes were exported to Microsoft Excel to obtained amplitude values for each mouse.
Figure S2. Effects of extending the timeline or administering eye drops of 17-mer[H105A] peptide every other day in rd10 mic e.
Eye drops of H105A peptide solution were administered to r d1 0 mice either daily (Fig. S2A) or every other day (Fi g. S 2D). A total of 5 µl of a solution containing H105A peptide at 1 mg/ml in HBSS were applied as eye drops. The vehicle HBSS was added as eye drops in the contralateral eyes. When eye […]
intensity light at P25 (Fig. S2C). When eye drops of H105A were added every other day, a rescue in the ONL thickness in r d10 mice compared to vehicle was also observed (Fi g. S 2E), with an improvement in a- […]
efficacy of peptide H105A eye drops either daily or every other day in an extended timeline to stabilize photoreceptor morphology and light response function loss in r d10 mice, however, these were less efficacious than daily H105A peptide eye drops. […]
(C) ERG of r d1 0 mice at P25 and treated as in Fi g. […] For ERG data shown, the number of mice evaluated were n =5 for rd10 and each data point corresponds to the average ± SD of each genotype by unpaired t-test. *p < 0.05, **p < 0.01, * ** p < 0 .001 , ****p < 0.0001. […]

Row | Sequence | ERG a- and b-wave responses relative to vehicle-treated eyes | ERG a-wave (rd10 mice, eye drops every other day P15 until P23, ERG at P25, n = 5)
1 | QRTESIIHRALYYDLIS [17-mer] | protected visual function | –
2 | QRTESIIARALYYDLIS [H105A] | protected visual function | improvement
